Consider 24 compounds from US12473304B2, “Heterocyclic PAD4 inhibitors” (BRISTOL-MYERS SQUIBB COMPANY, priority 2020, dated 2025).

human PAD4 (hPAD4), sequence (Q9UM07 whole entry): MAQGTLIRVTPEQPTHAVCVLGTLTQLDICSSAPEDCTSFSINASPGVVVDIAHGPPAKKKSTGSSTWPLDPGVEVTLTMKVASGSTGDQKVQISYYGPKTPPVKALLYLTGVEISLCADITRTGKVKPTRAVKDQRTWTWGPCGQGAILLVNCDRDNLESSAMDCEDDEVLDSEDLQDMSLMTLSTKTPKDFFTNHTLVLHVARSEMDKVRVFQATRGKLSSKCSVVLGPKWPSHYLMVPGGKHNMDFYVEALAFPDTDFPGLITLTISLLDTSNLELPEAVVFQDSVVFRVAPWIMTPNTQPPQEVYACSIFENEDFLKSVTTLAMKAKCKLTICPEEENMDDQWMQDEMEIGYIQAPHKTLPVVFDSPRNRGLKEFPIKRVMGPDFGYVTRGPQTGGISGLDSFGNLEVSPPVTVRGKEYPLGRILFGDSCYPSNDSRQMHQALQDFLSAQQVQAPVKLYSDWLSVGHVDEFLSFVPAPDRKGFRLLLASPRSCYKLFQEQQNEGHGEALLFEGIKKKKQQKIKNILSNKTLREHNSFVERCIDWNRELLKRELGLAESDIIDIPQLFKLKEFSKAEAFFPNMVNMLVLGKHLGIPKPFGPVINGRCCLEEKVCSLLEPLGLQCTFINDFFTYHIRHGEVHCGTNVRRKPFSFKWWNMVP

For the test, the target named is human PAD4 (hPAD4) (Homo sapiens (Human), UniProt Q9UM07). Kind of test: RFMS Human PAD4 Functional Assay 1. The class given is biochemical. Conditions: RFMS assay 1; 5 nM hPAD4, 250 μM BAEE substrate, 50 μM calcium, 37° C. Summed up:
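Citrullination product read by RapidFire triple-quad MRM against a modified-citrulline internal standard, after TCA stop and 30 min phenyl glyoxal step at 37 °C. Reaction: 250 μM BAEE, 5 nM human PAD4, 90 min at 37 °C, pH 7.5 HEPES buffer with 50 μM calcium and 5 μM TPEN, following 30 min compound–enzyme preincubation (max 50 μM).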
For `Cc1c(-c2cc3cccnc3n2CC2CC2)nn2cc(C(=O)N3CC4CCC3[C@@H]4N)cc(F)c12` (stereo partly drawn) [Example 38, ((7R)-7-Amino-2-azabicyclo[2.2.1]heptan-2-yl)(2-(1-(cyclopropylmethyl)-1H-pyrrolo[2,3-b]pyridin-2-yl)-4-fluoro-3-methylpyrazolo[1,5-a]pyridin-6-yl)methanone], the half-inhibitory concentration (IC50) is 158 nM.

For the compound `Cc1c(-c2cc3ccc(-c4ccc(N5CCCC5=O)cc4)cc3n2CC2CC2)nn2cc(C(=O)N3CC4CCC3[C@@H]4N)ccc12` (stereo partly drawn) [Example 329, 1-[4-(2-{6-[(7R)-7-Amino-2-azabicyclo[2.2.1]heptane-2-carbonyl]-3-methylpyrazolo[1,5-a]pyridin-2-yl}-1-(cyclopropylmethyl)-1H-indol-6-yl)phenyl]pyrrolidin-2-one], the IC50 worked out at 50 nM.

`CC(=O)N(C)C1CCN(c2ccc3cc(-c4nn5cc(C(=O)N6C[C@H](N)C[C@@H](F)C6)ccc5c4C)n(CC4CC4)c3c2)CC1` [Example 353, N-[1-(2-{6-[(3R,5R)-3-Amino-5-fluoropiperidine-1-carbonyl]-3-methylpyrazolo[1,5-a]pyridin-2-yl}-1-(cyclopropylmethyl)-1H-indol-6-yl)piperidin-4-yl]-N-methylacetamide]: the IC50 is 610 nM.

With `Cc1c(-c2cc3ccc(N4CCC(S(C)(=O)=O)CC4)nc3n2CC2CC2)nn2cc(C(=O)N3CC4CCC3[C@@H]4N)cc(F)c12` (stereo partly drawn) [Example 268, (7R)-2-{2-[1-(Cyclopropylmethyl)-6-(4-methanesulfonylpiperidin-1-yl)-1H-pyrrolo[2,3-b]pyridin-2-yl]-4-fluoro-3-methylpyrazolo[1,5-a]pyridine-6-carbonyl}-2-azabicyclo[2.2.1]heptan-7-amine], the half-maximal inhibitory concentration (IC50) came to 40 nM.

Regarding `COC(=O)N1CCC(c2cccc3cc(-c4nn5cc(C(=O)N6CC7CCC6[C@@H]7N)ccc5c4C)n(CC4CC4)c23)CC1` (stereo partly drawn) [Example 470, Methyl 4-(2-(6-((7R)-7-amino-2-azabicyclo[2.2.1]heptane-2-carbonyl)-3-methylpyrazolo[1,5-a]pyridin-2-yl)-1-(cyclopropylmethyl)-1H-indol-7-yl)piperidine-1-carboxylate], the IC50 stood at 10 nM.

Consider `Cc1cc(-c2ccc3cc(-c4nn5cc(C(=O)N6CCC[C@@H](N)C6)ccc5c4C)n(CC4CC4)c3n2)ccc1C(N)=O` [Example 316, 4-(2-{6-[(3R)-3-Aminopiperidine-1-carbonyl]-3-methylpyrazolo[1,5-a]pyridin-2-yl}-1-(cyclopropylmethyl)-1H-pyrrolo[2,3-b]pyridin-6-yl)-2-methylbenzamide], for which the IC50 worked out at 250 nM.

As to `COc1cc(C(=O)N2C[C@H](N)C[C@@H](F)C2)cn2nc(-c3cc4ccc(-c5ccc6[nH]ncc6c5)cc4n3CC3CC3)c(C)c12` [Example 218, (3R,5R)-1-{2-[1-(Cyclopropylmethyl)-6-(1H-indazol-5-yl)-1H-indol-2-yl]-4-methoxy-3-methylpyrazolo[1,5-a]pyridine-6-carbonyl}-5-fluoropiperidin-3-amine], the IC50 came to 550 nM.

For the compound `COc1cc(C(=O)N2CCC[C@@H](N)C2)cn2nc(-c3cc4cccc(OCC5CC(=O)N(C)C5)c4n3CC3CC3)c(C)c12` (single isomer, unassigned) [Example 551], the IC50 stood at 160 nM.

In the case of `Cc1c(-c2cc3cccc(C4CN(C(=O)C5CCCCO5)C4)c3n2CC2CC2)nn2cc(C(=O)N3C[C@H](N)C[C@@H](F)C3)ccc12` (mixture of isomers) [Example 544, ((3R,5R)-3-Amino-5-fluoropiperidin-1-yl)(2-(1-(cyclopropylmethyl)-7-(1-(tetrahydro-2H-pyran-2-carbonyl)azetidin-3-yl)-1H-indol-2-yl)-3-methylpyrazolo[1,5-a]pyridin-6-yl)methanone], the 50% inhibitory concentration (IC50) turned out to be 1070 nM.

For the compound `Cc1c(-c2cc3ccc(-c4cnn(C(C)C)c4)cc3n2CC2CC2)oc2cc(C(=O)N3CC4CCC3[C@@H]4N)ccc12` (stereo partly drawn) [Example 180, ((7R)-7-Amino-2-azabicyclo[2.2.1]heptan-2-yl)(2-(1-(cyclopropylmethyl)-6-(1-isopropyl-1H-pyrazol-4-yl)-1H-indol-2-yl)-3-methylbenzofuran-6-yl)methanone], the half-maximal inhibitory concentration (IC50) is 220 nM.

For the compound `COc1cc(C(=O)N2CCC[C@@H](N)C2)cn2nc(-c3cc4ccc(N5CCC(C(=O)N6CC(OC)C6)CC5)cc4n3CC3CC3)c(C)c12` [Example 251, (3R)-1-{2-[1-(Cyclopropylmethyl)-6-[4-(3-methoxyazetidine-1-carbonyl)piperidin-1-yl]-1H-indol-2-yl]-4-methoxy-3-methylpyrazolo[1,5-a]pyridine-6-carbonyl}piperidin-3-amine], the 50% inhibitory concentration (IC50) was 180 nM.

With `COc1cc(C(=O)N2CCC[C@@H](N)C2)cn2nc(-c3cc4ccc(-c5ccc(NC(C)=O)nc5)cc4n3CC3CC3)c(C)c12` [Example 240, N-[5-(2-{6-[(3R)-3-Aminopiperidine-1-carbonyl]-4-methoxy-3-methylpyrazolo[1,5-a]pyridin-2-yl}-1-(cyclopropylmethyl)-1H-indol-6-yl)pyridin-2-yl]acetamide], the IC50 was determined as 180 nM.

As to `Cc1c(-c2cc3cccc(C4CCN(C(=O)c5cccs5)CC4)c3n2CC2CC2)nn2cc(C(=O)N3CCC[C@@H](N)C3)ccc12` [Example 464, (R)-(3-aminopiperidin-1-yl)(2-(1-(cyclopropylmethyl)-7-(1-(thiophene-2-carbonyl)piperidin-4-yl)-1H-indol-2-yl)-3-methylpyrazolo[1,5-a]pyridin-6-yl)methanone], the IC50 worked out at 180 nM.

In the case of `Cc1c(-c2cc3ccc(-c4ccc5c(c4)C(=O)NC5)cc3n2CC2CC2)oc2cc(C(=O)N3CC4CCC3[C@@H]4N)ccc12` (stereo partly drawn) [Example 177, 6-(2-(6-((7R)-7-Amino-2-azabicyclo[2.2.1]heptane-2-carbonyl)-3-methylbenzofuran-2-yl)-1-(cyclopropylmethyl)-1H-indol-6-yl)isoindolin-1-one], the IC50 was 69 nM.

For the compound `CO[C@@H](C)C(=O)N1CCC(c2cc(F)cc3cc(-c4nn5cc(C(=O)N6C[C@H](N)C[C@@H](F)C6)ccc5c4C)n(CC4CC4)c23)CC1` [Example 500, (S)-1-(4-(2-(6-((3R,5R)-3-Amino-5-fluoropiperidine-1-carbonyl)-3-methylpyrazolo[1,5-a]pyridin-2-yl)-1-(cyclopropylmethyl)-5-fluoro-1H-indol-7-yl)piperidin-1-yl)-2-methoxypropan-1-one], the half-maximal inhibitory concentration (IC50) was determined as 240 nM.

On to `COc1cc(C(=O)N2CC3CCC2[C@@H]3N)cc2oc(-c3cc4ccc(C)cc4n3CC3CC3)c(C)c12` (stereo partly drawn) [Example 151, ((7R)-7-Amino-2-azabicyclo[2.2.1]heptan-2-yl)(2-(1-(cyclopropylmethyl)-6-methyl-1H-indol-2-yl)-4-methoxy-3-methylbenzofuran-6-yl)methanone], for which the IC50 stood at 325 nM.

For the compound `Cc1c(-c2cc3ccc(-c4ccc(C(N)=O)cc4C(F)(F)F)cc3n2CC2CC2)nn2cc(C(=O)N3CC4CCC3[C@@H]4N)ccc12` (stereo partly drawn) [Example 335, 4-(2-{6-[(7R)-7-Amino-2-azabicyclo[2.2.1]heptane-2-carbonyl]-3-methylpyrazolo[1,5-a]pyridin-2-yl}-1-(cyclopropylmethyl)-1H-indol-6-yl)-3-(trifluoromethyl)benzamide], the IC50 was 60 nM.

For `COc1cc(C(=O)N2CC3CCC2[C@@H]3N)cn2nc(-c3cc4ccc(-c5ccc(OC(F)F)cc5)cc4n3CC3CC3)c(C)c12` (stereo partly drawn) [Example 26, ((7R)-7-Amino-2-azabicyclo[2.2.1]heptan-2-yl)(2-(1-(cyclopropylmethyl)-6-(4-(difluoromethoxy)phenyl)-1H-indol-2-yl)-4-methoxy-3-methylpyrazolo[1,5-a]pyridin-6-yl)methanone], the IC50 turned out to be 449 nM.

With `COc1cc(C(=O)N2C[C@H](N)C[C@@H](F)C2)cn2nc(-c3cc4cccc(C5CCN(C(=O)C6CCCCO6)CC5)c4n3CC3CC3)c(C)c12` (single isomer, unassigned) [Example 388], the IC50 was 70 nM.

On to `Cc1c(-c2cc3ccc(-c4ccc5cn[nH]c5c4)nc3n2CC2CC2)nn2cc(C(=O)N3CCC[C@@H](N)C3)ccc12` [Example 310, (3R)-1-{2-[1-(Cyclopropylmethyl)-6-(1H-indazol-6-yl)-1H-pyrrolo[2,3-b]pyridin-2-yl]-3-methylpyrazolo[1,5-a]pyridine-6-carbonyl}piperidin-3-amine], for which the IC50 was determined as 400 nM.

`COc1cc(C(=O)N2CCC[C@@H](N)C2)cn2nc(-c3cc4cccc(C5CCN(C(=O)[C@@H](C)OC)CC5)c4n3CC3CC3)c(C)c12` [Example 402, (R)-1-(4-(2-(6-((R)-3-Aminopiperidine-1-carbonyl)-4-methoxy-3-methylpyrazolo[1,5-a]pyridin-2-yl)-1-(cyclopropylmethyl)-1H-indol-7-yl)piperidin-1-yl)-2-methoxypropan-1-one]: the half-maximal inhibitory concentration (IC50) stood at 60 nM.

Regarding `COc1cc(C(=O)N2C[C@H](N)C[C@@H](F)C2)cn2nc(-c3cc4ccc(C(C)(O)C(F)(F)F)cc4n3CC3CC3)c(C)c12` (stereo partly drawn) [Example 99, ((3R,5R)-3-Amino-5-fluoropiperidin-1-yl)(2-(1-(cyclopropylmethyl)-6-(1,1,1-trifluoro-2-hydroxypropan-2-yl)-1H-indol-2-yl)-4-methoxy-3-methylpyrazolo[1,5-a]pyridin-6-yl)methanone], the IC50 was 307 nM.

In the case of `COc1cc(C(=O)N2CC3CCC2[C@@H]3N)cc2oc(-c3cc4ccc(-c5ccc6c(c5)CNC6=O)cc4n3CC3CC3)c(C)c12` (stereo partly drawn) [Example 149, 5-(2-(6-((7R)-7-Amino-2-azabicyclo[2.2.1]heptane-2-carbonyl)-4-methoxy-3-methylbenzofuran-2-yl)-1-(cyclopropylmethyl)-1H-indol-6-yl)isoindolin-1-one], the 50% inhibitory concentration (IC50) is 111 nM.

Regarding `Cc1c(-c2cc3ccc(N4CCC(n5cccn5)CC4)cc3n2CC2CC2)nn2cc(C(=O)N3CCC[C@@H](N)C3)ccc12` [Example 365, (3R)-1-{2-[1-(Cyclopropylmethyl)-6-[4-(1H-pyrazol-1-yl)piperidin-1-yl]-1H-indol-2-yl]-3-methylpyrazolo[1,5-a]pyridine-6-carbonyl}piperidin-3-amine], the concentration for half-maximal inhibition (IC50) came to 720 nM.

As a reminder, the IC50 is the concentration that gives 50% inhibition.
